{
  "source": "patent US9539327B2",
  "about": "“Small molecule cancer treatments that cause necrosis in cancer cells but do not affect normal cells” (THE RESEARCH FOUNDATION FOR THE STATE UNIVERSITY OF NEW YORK, priority 2007, dated 2017)",
  "key": {"[1]": {"tested_on": "primary human Ag 13145 fibroblasts", "assay": "Dose-response cytotoxicity by LDH release, normal fibroblasts (FIG. 13 D)", "assay_type": "cell-based", "settings": "same dose range as applied to tumor cells (1-500 micrograms/ml); 30 min at 37° C.", "protocol": "(§1) FIG. 13, graphs A through D, depict the results of dose-response experiments completed on three difference cancer cell samples and one normal primary human cell line to treatment in vitro with PNC-27 (from 1-500 micrograms/ml). The cancer cell lines were human pancreatic cancer, MiaPaCa-2 (upper left, A), Hu-Melanoma cells (upper right, B), and a rodent tumor cell line, i.e., pancreatic cancer BMRPA1.TUC-3 cells (lower left, C). As controls, cells from the same cell lines were tested in parallel with a control peptide, PNC-29, over the same range of peptide concentrations. As another control, cells from primary human Ag 13145 fibroblasts (lower right, D) were treated with the same doses of PNC-27 and PNC-29, respectively.\n(§2) The results are plotted along with those for PNC-29, the negative control. […] The measurements of cytotoxicity were performed by assaying for LDH in the cell supernatant.\n(§3) For the dose response experiments (n=3-5), 0.1 ml of each of the cells (70,000 cells/ml of culture medium) were seeded into each of the wells of 96-well TCD (7000 cells/well) and allowed to adhere overnight. […] The results were read at OD490 nm in an ELISA plate reader within 15 min of stopping the color development in the wells. The results were calculated as advised by the manufacturers guidelines (CytoTox 96 Non-radioactive Cytotoxicity Assay, Promega), and the data were expressed in % Cytotoxicity."}, "[2]": {"tested_on": "MiaPaCa-2, Hu-Melanoma cells, BMRPA1.TUC-3 cells", "assay": "Dose-response cytotoxicity by LDH release, cancer cells (FIG. 13 A-C)", "assay_type": "cell-based", "settings": "1-500 micrograms/ml; 30 min at 37° C.; tumor cells", "protocol": "as §1, §2, §3"}, "[3]": {"tested_on": "Cancer cells", "method": "After the cells were treated, the cells were incubated first with the anti-p53 antibody that recognizes p53 residues 12-26. This antibody is called DO-1, and it is labeled with FITC, a green fluorescent probe. The cells were washed free of any excess antibody. Then the cells were incubated with an anti-HDM-2 antibody that was been conjugated to a red fluorescent dye. After washing the cells free of excess antibody, the cells were subjected to confocal microscopy."}, "[4]": {"tested_on": "non-cancerous cells", "assay": "Untransformed cell lines and primary human cells incubated with peptide (FIG. 5)", "assay_type": "cell-based", "settings": "Thirty microMolar; one day up to two weeks; normal rat pancreatic acinar cells, human breast cells, primary human fibroblasts, primary human keratinocytes, umbilical cord stem cells", "from_the_text": "The experimental methods which yielded the data depicted in FIG. 5 are described in sufficient detail for those skilled in the art in the following publications: • Kanovsky, M., Raffo, A., Drew, L., Rosal, R., Do, T., Friedman, F. K., Rubinstein, P., Visser, I., Robinson, R., Brandt-Rauf, […]., Fine, R. L. and Pincus, M. R. (2001) Peptides from the Amino Terminal mdm-2 Binding Domain of p53, Designed from Conformational Analysis, Are Selectively Cytotoxic to Transformed Cells. Proc. Natl. Acad. Sci. USA 98, 12438-12443; • Do, T. N., Rosal, R. V., Drew, L., Raffo, […]., Pincus, M. R., Friedman, […]., Sidhu, G., Fine, R. L. and Brandt-Rauf, P. W. (2003) Preferential Induction of Necrosis in Human Breast Cancer Cells by a p53 Peptide Derived from the mdm-2 Binding Site. Oncogene 22, 1431-1444; and • Bowne, […]., Yadzi, E., Lou, […]., Harding, M., Bluth, M. H., Ng, M., Brandt-Rauf, […]. and Pincus, M. r. (2008) The Penetrating Sequence in the Anti-Cancer PNC-28 Peptide Causes Tumor Necrosis Rather than Apoptosis of Human Pancreatic Cancer Cells. Ann. Surg. Oncol., in press. Referring to FIG. 5, the table illustrates that the cancer treatment PNC-27, when administered to non-cancerous cells, has no effect. […]"}, "[5]": {"tested_on": "human pancreatic cancer MIA PaCa-2 cells", "assay": "Transmission electron microscopy of PNC-28-treated cells (FIG. 8)", "assay_type": "cell-based", "settings": "treated for 10 minutes; 50 μg/ml", "protocol": "FIG. 8 depicts a photograph taken during a Transmission Electron Microscopy study of human pancreatic cancer MIA PaCa-2 cells that had been treated for 10 minutes with PNC-28. […] The middle arrow depicts an area of the cell's plasma membrane that has erupted as a result of PNC-28 acting upon it. The bottom-most arrow depicts an area on the cell's plasma membrane that is discontinuous as a result of PNC-28 administration. From one or more of these areas emphasized with arrows, the cytoplasm will begin to leak from the cell, into the surrounding medium. Extrusion of much of the cells cytoplasmic content through such holes (pores) while the nuclear membrane was still intact was a frequent finding in these and other tumor cells when the incubation period with PNC-28 was extended. Magn. ×42,600.\nCells (1×10^6) were grown in 6-well dishes overnight then spent medium was removed, the cells were washed with PBS and treated at 37° C. with PNC-28 at 50 μg/ml in PBS. At different time points (5-30 min) during the PNC-28 treatment the cells were washed and fixed in 3% buffered paraformaldehyde supplemented with 0.01% glutaraldehyde for 1.5 h. After extensive washing, the cells were treated with glycine and NaBH4 as described above followed by 3 times washing in PBS. […]"}},
  "note": "Ends that are not written are not given here.",
  "data": [
    {"compound": "PPLSQETFSDLWKLLKKWKMRRNQFWVKVQRG [PNC-27]", "values": [
      {"measurement": "cytotoxicity (LDH in the cell supernatant)", "setting": "[1]", "result": "no effect"},
      {"measurement": "cytotoxicity (LDH in the cell supernatant)", "setting": "[2]", "result": "strong dose dependency"},
      {"measurement": "IC50", "setting": "[3]", "result": 125, "unit": "µg/mL"}
    ]},
    {"compound": "CC[C@H](C)[C@H](NC(=O)[C@H](CCCNC(=N)N)NC(=O)[C@H](CCCCN)NC(=O)CNC(=O)[C@@H](NC(=O)[C@H](CO)NC(=O)[C@H](Cc1ccccc1)NC(=O)[C@@H]1CCCN1C(=O)[C@@H](N)CCSC)[C@@H](C)O)C(=O)N[C@@H](CCSC)C(=O)N[C@@H](CC(C)C)C(=O)NCC(=O)N[C@@H](CCC(=O)O)C(=O)N[C@@H](CCCCN)C(=O)N[C@@H](CCCCN)C(=O)N[C@@H](Cc1c[nH]c2ccccc12)C(=O)N[C@@H](CCCCN)C(=O)N[C@@H](CCSC)C(=O)N[C@@H](CCCNC(=N)N)C(=O)N[C@@H](CCCNC(=N)N)C(=O)N[C@@H](CC(N)=O)C(=O)N[C@@H](CCC(N)=O)C(=O)N[C@@H](Cc1ccccc1)C(=O)N[C@@H](Cc1c[nH]c2ccccc12)C(=O)N[C@H](C(=O)N[C@@H](CCCCN)C(=O)N[C@H](C(=O)N[C@@H](CCC(N)=O)C(=O)N[C@@H](CCCNC(=N)N)C(=O)NCC(=O)O)C(C)C)C(C)C", "note": "[PNC-29, reference compound]", "values": [
      {"measurement": "cytotoxicity (LDH in the cell supernatant)", "setting": "[2]", "result": "absence of any effect"}
    ]},
    {"compound": "ETFSDLWKLLKKWKMRRNQFWVKVQRG (PNC-28) [p53 AA 17-26 attached to the membrane resident peptide (MRP)]", "values": [
      {"measurement": "effect on non-cancerous cells", "setting": "[4]", "result": "no measurable effect"},
      {"measurement": "plasma membrane change (TEM)", "setting": "[5]", "result": "needle-shaped pore has formed in the cancer cell plasma membrane"}
    ]}
  ]
}
